Results taken from patent publication US20120201749A1, “NP-1 Antagonists and Their Therapeutic Use” (priority 2009, published 2012).

Biological target: NP-1 (Homo sapiens, UniProt O14786)
Test: Biotinylated-VEGF-A165 (bt-VEGF-A165) binding to NP-1
Conditions: for inhibition at 3 µM: 3 μM compound, read-out: Screen (% inhibition at 3 μM); for inhibition at 30 µM: 30 μM compound, read-out: Screen (% inhibition at 30 μM)
Procedure, shortened: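 Cell format: DU145 cells transduced with adenoviral full-length human NP-1, 2 nM bt-VEGF-A165, DMEM/25 mM HEPES pH 7.3/0.1% BSA; plate format: NP-1 coated at 3 μg/ml, 0.25 nM bt-VEGF-A165, PBS with 1% DMSO. Both 2 h at room temperature; bound ligand read by streptavidin-HRP at A450 nm.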

Sequence of NP-1 (O14786 22-923): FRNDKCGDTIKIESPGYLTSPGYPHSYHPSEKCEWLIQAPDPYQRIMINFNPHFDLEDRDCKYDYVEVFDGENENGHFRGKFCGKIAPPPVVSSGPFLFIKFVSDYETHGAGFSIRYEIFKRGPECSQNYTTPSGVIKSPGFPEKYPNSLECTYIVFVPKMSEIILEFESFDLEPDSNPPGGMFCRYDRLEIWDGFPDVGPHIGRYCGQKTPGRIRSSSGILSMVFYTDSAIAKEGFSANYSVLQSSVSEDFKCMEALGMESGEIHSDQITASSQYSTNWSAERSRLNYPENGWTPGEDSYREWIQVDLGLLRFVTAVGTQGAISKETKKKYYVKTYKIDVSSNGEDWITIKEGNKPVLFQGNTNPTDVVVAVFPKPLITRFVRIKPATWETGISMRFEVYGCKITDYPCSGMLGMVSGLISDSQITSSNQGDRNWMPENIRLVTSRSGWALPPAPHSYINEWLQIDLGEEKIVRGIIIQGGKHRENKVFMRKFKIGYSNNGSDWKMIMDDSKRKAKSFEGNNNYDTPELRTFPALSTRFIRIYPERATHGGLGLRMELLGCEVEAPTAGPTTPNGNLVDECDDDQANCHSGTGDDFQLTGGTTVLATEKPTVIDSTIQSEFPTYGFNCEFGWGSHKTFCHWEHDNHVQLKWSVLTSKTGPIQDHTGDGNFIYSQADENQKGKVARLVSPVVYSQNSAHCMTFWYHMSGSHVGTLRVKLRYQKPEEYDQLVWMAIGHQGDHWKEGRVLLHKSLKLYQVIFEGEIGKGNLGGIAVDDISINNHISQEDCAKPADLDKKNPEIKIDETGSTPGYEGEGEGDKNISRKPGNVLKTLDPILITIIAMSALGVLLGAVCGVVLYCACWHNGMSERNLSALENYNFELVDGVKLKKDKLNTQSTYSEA

Row | Compound | IC50 [nM] | inhibition at 3 µM [%] | inhibition at 30 µM [%]
1 | N=C(N)NCCC[C@H](NC(=O)c1sccc1NS(=O)(=O)c1cc(-c2cccc(CN3CCC(C(=O)O)CC3)c2)cc2c1OCC2)C(=O)O [Compound 3, 1-(3-{7-[2-((S)-1-Carboxy-4-guanidino-butylcarbamoyl)-thiophen-3-ylsulfamoyl]-2,3-dihydro-benzofuran-5-yl}-benzyl)-piperidine-4-carboxylic acid] | 142 | 89 | 
2 | N=C(N)NCCC[C@H](NC(=O)c1sccc1NS(=O)(=O)c1cc(-c2cccc(CNCc3ccccn3)c2)cc2c1OCC2)C(=O)O [Compound 31, (S)-5-Guanidino-2-({3-[5-(3-{[(pyridin-2-ylmethyl)-amino]-methyl}-phenyl)-2,3-dihydro-benzofuran-7-sulfonylamino]-thiophene-2-carbonyl}-amino)-pentanoic acid] | 105 | 86 | 99
3 | N=C(N)NCCC[C@H](NC(=O)c1sccc1NS(=O)(=O)c1cccc(NCc2cnn(CCN3CCN(c4ccccn4)CC3)c2)c1)C(=O)O [Compound 68] |  | 37 | 89
4 | N=C(N)NCCC[C@H](NC(=O)c1sccc1NS(=O)(=O)c1cccc(NCc2csc(C(=O)O)n2)c1)C(=O)O [Compound 72] |  | 31 | 83
5 | COC(=O)C1CCN(Cc2cccc(-c3cc4c(c(S(=O)(=O)Nc5ccsc5C(=O)N[C@@H](CCCNC(=N)N)C(=O)O)c3)OCC4)c2)CC1 [Compound 7, 1-(3-{7-[2-((S)-1-Carboxy-4-guanidino-butylcarbamoyl)-thiophen-3-ylsulfamoyl]-2,3-dihydro-benzofuran-5-yl}-benzyl)-piperidine-4-carboxylic acid methyl ester] | 5 | 94 | 
6 | N=C(N)NCCC[C@H](NC(=O)c1sccc1NS(=O)(=O)c1cc(-c2ccccc2CNCc2ccc(O)nc2)cc2c1OCC2)C(=O)O [Compound 49, (S)-5-Guanidino-2-({3-[5-(2-{[(6-hydroxy-pyridin-3-ylmethyl)-amino]-methyl}-phenyl)-2,3-dihydro-benzofuran-7-sulfonylamino]-thiophene-2-carbonyl}-amino)-pentanoic acid] |  | 52 | 
7 | COC(=O)C1CCN(Cc2ccccc2-c2cc3c(c(S(=O)(=O)Nc4ccsc4C(=O)N[C@@H](CCCNC(=N)N)C(=O)O)c2)OCC3)CC1 [Compound 5, 1-(2-{7-[2-((S)-1-Carboxy-4-guanidino-butylcarbamoyl)-thiophen-3-ylsulfamoyl]-2,3-dihydro-benzofuran-5-yl}-benzyl)-piperidine-4-carboxylic acid methyl ester] | 14 | 92 | 100
8 | N=C(N)NCCC[C@H](NC(=O)c1sccc1NS(=O)(=O)c1cccc(NCc2csc(N3CCN(Cc4cccnc4)CC3)n2)c1)C(=O)O [Compound 59, (S)-5-guanidino-2-{[3-(3-{[2-(4-pyridin-3-ylmethyl-piperazin-1-yl)-thiazol-4-ylmethyl]-amino}-benzenesulfonylamino)-thiophene-2-carbonyl]-amino}-pentanoic acid] |  | 58 | 94
9 | N=C(N)NCCC[C@H](NC(=O)c1sccc1NS(=O)(=O)c1cccc(NCc2csc(N3CCN(c4ncncn4)CC3)n2)c1)C(=O)O [Compound 75, (S)-5-guanidino-2-{[3-(3-{[2-(4-[1,3,5]triazin-2-yl-piperazin-1-yl)-thiazol-4-ylmethyl]-amino}-benzenesulfonylamino)-thiophene-2-carbonyl]-amino}-pentanoic acid] |  | 63 | 
10 | COc1ccccc1-c1nc(CNc2cccc(S(=O)(=O)Nc3ccsc3C(=O)N[C@@H](CCCNC(=N)N)C(=O)O)c2)no1 [Compound 69, (S)-5-Guanidino-2-{[3-(3-{[5-(2-methyoxy-phenyl)-[1,2,4]oxadiazol-3-ylmethyl]-amino}-benzenesulfonylamino)-thiophene-2-carbonyl]-amino}-pentanoic acid] |  | 37 | 79
